According to patent publication US20090233326A1, “METHOD FOR INDUCTION OF THE DIFFERENTIATION OF VISCERAL FAT CELL” (priority 2006, published 2009):

Experiments:
Format in all cases: cell-based, rat
[1] = system: adiponectin mRNA; test: Adiponectin mRNA expression by real-time PCR
Method: The level of adiponectin mRNA expression was then examined with the aim of investigating the influence of the insulin concentration on VAC function (FIG. 3). After the VSCs had been differentiated by 10 μg/mL insulin for 3 days, they were then cultured for 4 days in the presence of 10 μg/mL insulin (lane 2), 0.2 μg/mL insulin (lane 3), 70 ng/mL insulin (lane 4), 22 ng/mL insulin (lane 5), or 7.4 ng/mL insulin (lane 6). After the 7-day culture, mRNA was separated and the amount of adiponectin mRNA expression was measured by real-time PCR. The value for the 7-day culture in the absence of insulin was set at 1. The results are shown in FIG. 3 (1: cultured for 7 days without insulin. 2: cultured for 7 days with 10 μg/mL insulin. 3: induction of differentiation for 3 days with 10 μg/mL insulin followed by culture for 4 days with 0.2 μg/mL insulin. 4: induction of differentiation for 3 days with 10 μg/mL insulin followed by culture for 4 days with 70 ng/mL insulin. 5: induction of differentiation for 3 days with 10 μg/mL insulin followed by culture for 4 days with 22 ng/mL insulin. 6: induction of differentiation for 3 days with 10 μg/mL insulin followed by culture for 4 days with 7.4 ng/mL insulin.).

[2] = system: insulin receptor; test: Insulin receptor expression by immunoblotting with anti-IR antibody
Method: The amount of insulin receptor expression in the maturation process was then examined (FIG. 4). After the VSCs had been cultured for 7, 8, or 9 days, the total cell lysate (20 μg protein) was separated by SDS-PAGE and the IR was detected by immunoblotting with anti-IR antibody. In addition, actin was detected by immunoblotting with anti-actin antibody as the loading control. […] VSCs were cultured for 3 days in the presence of 10 μg/mL insulin or 200 ng/mL IGF-1, after which the total cell lysate (20 μg protein) was separated by SDS-PAGE and the insulin receptor was detected by immunoblotting with anti-insulin receptor (IR) antibody. Actin was detected by immunoblotting with anti-actin antibody as a loading control. […] After culture for 7 days, the total cell lysate (20 μg protein) was separated by SDS-PAGE and the IR was determined by immunoblotting with anti-IR antibody. Actin was detected by immunoblotting with anti-actin antibody as a loading control.

[3] = system: aP2 mRNA; test: aP2 mRNA expression by real-time PCR
Method: (§1) Differentiation conditions 1 to 12 in FIG. 2A correspond to the 1 to 12 in FIGS. 2B, 2C, and 2D (B: photographs after culture for 7 days; C: mRNA was separated after culture for 7 days, and the level of C/EBPα mRNA expression was measured by real-time PCR (the value on day 0 of culture was set at 1); D: the level of aP2 mRNA expression was measured by real-time PCR (the value on day 7 of culture for condition 1 was set at 1)).
(§2) A continuous 7-day culture was carried out in a culture medium containing 200 ng/mL IGF-1 (normal concentration in human blood=150 to 250 ng/mL), and the amount of mRNA expression was then measured for C/EBPα (adipocyte differentiation marker), aP2 (adipocyte differentiation marker), and C/EBPβ (differentiation marker for undifferentiated adipocytes). The results are shown in FIG. 5 (A: photographs after culture for 7 days. 1: cultured with 200 ng/mL IGF-1 for 3 days and then with 22 ng/mL insulin for 4 days. 2: cultured with 200 ng/mL IGF-1 and 22 ng/mL insulin for 7 days. 3: cultured with 200 ng/mL IGF-1 for 7 days. The 1 to 3 corresponds to lanes 1 to 3 in FIGS. 5B to 5D. B: mRNA was separated after the 7-day culture and the amount of C/EBPα mRNA expression was measured by real-time PCR. The value for a culture of 3 days with 10 μg/mL insulin and then 4 days with 22 ng/mL insulin was set at 1. C: mRNA was separated after the 7-day culture and the amount of aP2 mRNA expression was measured by real-time PCR. The value for a culture of 3 days with 10 μg/mL insulin and then 4 days with 22 ng/mL insulin was set at 1. D: mRNA was separated after the 7-day culture and the amount of C/EBPβ mRNA expression was measured by real-time PCR. The value for a culture of 3 days with 10 μg/mL insulin and then 4 days with 22 ng/mL insulin was set at 1.).
The influence of various combinations of IGF-1 and insulin on VAC differentiation induction and maturation was investigated. The results are shown in FIG. 6 (A: photographs after culture for 7 days. 1: cultured with 200 ng/mL IGF-1 for 3 days and then with 2.5 ng/mL insulin for 4 days. 2: cultured with 200 ng/mL IGF-1 and 2.5 ng/mL insulin for 7 days. 3: cultured with 200 ng/mL IGF-1 for 3 days and then with 0.85 ng/mL insulin for 4 days. 4: cultured with 200 ng/mL IGF-1 and 0.85 ng/mL insulin for 7 days. B: mRNA was separated after the 7-day culture and the amount of C/EBPβ mRNA expression was measured by real-time PCR. The value for a culture of 3 days with 10 μg/mL insulin and then 4 days with 22 ng/mL insulin was set at 1. C: mRNA was separated after the 7-day culture and the amount of aP2 mRNA expression was measured by real-time PCR. The value for a culture of 3 days with 10 μg/mL insulin and then 4 days with 22 ng/mL insulin was set at 1.).

[4] = system: adiponectin; test: Adiponectin content of the culture medium (ELISA)
Method: The conventionally used dexamethasone-based differentiation induction system was first evaluated. 2.5 μM dexamethasone and 10 μg/mL insulin or 10 μg/mL insulin was added to the medium to allow for VSC differentiation and maturation for 7 days. […] When dexamethasone was also added to the differentiation induction culture medium, single cell enlargement was promoted (FIG. 1B), although there was no difference in the differentiation efficiency. In addition, the norepinephrine-induced triglyceride degradation reaction was reduced (data not shown).
After 9-day culture with 200 ng/mL IGF-1 and different insulin concentrations, the culture medium was taken and the adiponectin content was measured by ELISA. When VSCs were cultured for 9 days with the constant presence of 200 ng/mL IGF-1 and insulin at a concentration of 10 μg/mL (lane 1), 70 ng/mL (lane 2), 22 ng/mL (lane 3), or 2.5 ng/mL (lane 4), the amount of adiponectin secretion was reduced at insulin concentrations of 70 ng/mL and above (FIG. 9A). When VSCs were cultured for the first 4 days with 200 ng/mL IGF-1 and 2.5 ng/mL insulin followed by 5 days with 200 ng/mL IGF-1 and insulin at a concentration of 10 μg/mL (lane 1), 70 ng/mL (lane 2), 22 ng/mL (lane 3), or 2.5 ng/mL (lane 4), adiponectin secretion was again reduced at insulin concentrations of 70 ng/mL and above (FIG. 9B). […]

[5] = system: VSC (visceral stromal cells=preadipocytes); test: Induction of VSC-to-VAC differentiation (lipid droplet formation, photographs after culture)
Method: Mesenteric fat tissue was excised from the abdominal cavity of 3-5 week old male Sprague-Dawley rats (average body weight=100 g) and was washed three times with Hanks' balanced salt solution. The fat was minced with scissors and then incubated for 40 minutes at 37° C. in DMEM/F-12 culture medium containing 0.2% collagenase and 1.0% bovine albumin. The collagenase-digested tissue suspension was subsequently filtered through 600 μm mesh and Hanks' balanced salt solution was added. After centrifugation for 10 minutes at 800×g, the sediment was washed three times with Hanks' balanced salt solution and once with DMEM/F-12 culture medium and was then filtered through 100 μm mesh. The cell suspension thus prepared from the intraabdominal mesenteric fat was seeded to dishes at 0.5×10^5 cells/cm^2, and incubated at 37° C. and 5% CO2 in the culture medium with the indicated composition. The culture medium was changed once a day or once every two days. The culture medium was prepared by the addition of 17 mM pantothenic acid, 33 mM biotin, 100 mM ascorbic acid, 1 mM octanoic acid, 50 nM triiodothyronine, 100 unit/mL penicillin, and 100 mg/mL streptomycin to a basal culture medium of (DMEM)/F12 containing 10% NCS. Insulin and IGF-1 were added in the specified concentrations, and the resulting culture medium was used in the experiments described below.

[6] = system: C/EBPα mRNA; test: C/EBPα mRNA expression by real-time PCR
Method: as §1, §2
Additional investigations were then carried out into the IGF-1 concentration required for differentiation. Proceeding in the same manner as described above, VSCs were cultured for 7 days in the presence of 0.85 ng/mL insulin and IGF-1 at different concentrations. After culturing, mRNA was separated and the amount of C/EBPα mRNA expression was measured by real-time PCR. After culture for 7 days, mRNA was separated and the amount of C/EBPα mRNA expression and the amount of C/EBPβ mRNA expression were measured by real-time PCR. The value for the amount of mRNA expression for culture with 10 μg/mL insulin for 3 days followed by with 22 ng/mL insulin for 4 days was set at 1.

[7] = system: C/EBPβ mRNA; test: C/EBPβ mRNA expression by real-time PCR
Method: as §2, with “real-time PCR. […] D: mRNA” for “real-time PCR. The value for a culture of 3 days with 10 μg/mL insulin and then 4 days with 22 ng/mL insulin was set at 1. D: mRNA”, “real-time PCR. […]” for “real-time PCR. The value for a culture of 3 days with 10 μg/mL insulin and then 4 days with 22 ng/mL insulin was set at 1.).”
The influence of various combinations of IGF-1 and insulin on VAC differentiation induction and maturation was investigated. […] C: mRNA was separated after the 7-day culture and the amount of aP2 mRNA expression was measured by real-time PCR. […]

[8] = 7-day culture with only IGF-1 (200 ng/mL), vs 10 μg/mL insulin then 22 ng/mL insulin

insulin
level of adiponectin mRNA expression ([1]; 10 μg/mL insulin for 3 days then 4 days 7.4 ng/mL insulin (lane 6)): reduced | level of adiponectin mRNA expression ([1]; 7-day culture with 10 μg/mL insulin (lane 2) vs 3 days 10 μg/mL then 4 days 0.2 μg/mL to 22 ng/mL (lanes 3 to 5)): lower level | amount of insulin receptor expression ([2]; 3-day induction with 10 μg/mL insulin vs 200 ng/mL IGF-1 or 200 ng/mL IGF-1 and 22 ng/mL insulin): decline | insulin receptor expression ([2]; 3 days 10 μg/mL insulin, maturation with 22 ng/mL, then culture with insulin at 70 ng/mL or greater vs 22 ng/mL, 7, 8 or 9 days): substantial decline | aP2 mRNA expression level ([3]; 10 μg/mL insulin for 3 days, then at least 22 ng/mL insulin (condition 11), vs constant 10 μg/mL insulin): the same level | aP2 mRNA expression level ([3]; 10 μg/mL insulin for 3 days, then insulin at or below 7.4 ng/mL (condition 12), vs constant 10 μg/mL insulin): less aP2 expression | aP2 mRNA expression level ([3]; 10 μg/mL insulin for only 2 days (condition 5), vs constant 10 μg/mL insulin): less aP2 expression | aP2 mRNA expression level ([3]; constant presence of 0.2 μg/mL insulin, vs constant 10 μg/mL insulin (condition 2)): less aP2 expression | adiponectin secretion ([4]; 4 days 200 ng/mL IGF-1 and 2.5 ng/mL insulin, then 5 days 200 ng/mL IGF-1 and insulin at 70 ng/mL and above): again reduced | amount of adiponectin secretion ([4]; 9 days, constant 200 ng/mL IGF-1 and insulin at 70 ng/mL and above (vs 22 or 2.5 ng/mL)): reduced | lipid droplet formation ([5]; 0.2 μg/mL insulin, 7 days (condition 3)): entirely absent | lipid droplet accumulation ([5]; 10 μg/mL insulin for 2 days followed by 0.2 μg/mL insulin, total of 7 days (condition 5)): significant decline | lipid droplet formation ([5]; 10 μg/mL insulin for 3 days, then insulin reduced to 22 ng/mL (condition 11)): same level | differentiation into adipocytes (lipid droplets) ([5]; 10 μg/mL insulin, 7 days (condition 2)): differentiation into adipocytes occurred | fat accumulation ([5]; 10 μg/mL insulin, VSC differentiation and maturation for 7 days): normal fat accumulation | lipid droplet accumulation ([5]; 3-day treatment with 10 μg/mL insulin without the ensuing 0.2 μg/mL insulin, vs system containing 0.2 μg/mL insulin): significant decline | C/EBPα mRNA expression level ([6]; 10 μg/mL insulin for 2 days (conditions 4 and 5), 7 days): did not increase | C/EBPα mRNA expression level ([6]; 10 μg/mL insulin for only 3 days followed by absence of insulin for 4 days (condition 6)): did rise | C/EBPα mRNA expression level ([6]; constant presence of 0.2 μg/mL insulin (condition 3), 7 days): did not increase

insulin-like growth factor-1 [IGF-1]
expression of aP2 mRNA [3, 8]: increased | accumulation of lipid droplets ([5]; 200 ng/mL IGF-1 alone, 7 days): not seen | differentiation efficiency ([5]; IGF-1 concentrations of 50 ng/mL and below, plus 0.85 ng/mL insulin, 7 days): decline | expression of C/EBPα mRNA [6, 8]: increased | amount of C/EBPα mRNA expression ([6]; as a function of the IGF-1 concentration (10 to 800 ng/mL) plus 0.85 ng/mL insulin, 7 days): no changes | amount of C/EBPβ mRNA ([7]; 7-day culture with IGF-1 alone (200 ng/mL; FIG. 5D, lane 3)): maintained | amount of C/EBPβ mRNA expression ([7]; IGF-1 concentrations of 50 ng/mL or less vs 200 ng/mL IGF-1, plus 0.85 ng/mL insulin, 7 days): increased amounts of expression
